Assay results taken from patent US20130150399A1, “INHIBITORS OF THE UNFOLDED PROTEIN RESPONSE AND METHODS FOR THEIR USE” (The Board of Trustees of the Leland Stanford Junior …, priority 2006, published 2013).

Key:
XBP-1s = experiment: Western immunoblot of XBP-1s, HT1080 cells; format: cell-based, human
Description: Cells were harvested, lysed, and analyzed by Western blot using anti-XBP-1 antisera (lower panel) or anti-HIF-1 antisera (top panel) to confirm hypoxia exposure.
Cells (2×10^6) were cultured in 10-cm dishes, collected using a cell scraper at 4° C., and lysed by addition of 150 μl cell lysis buffer [50 mM Tris pH 7.4, 150 mM NaCl, 10% glycerol, 0.5% Triton X-100. 0.5% NP-40, 2 mM Na3VO4, 20 mM beta-glycerophosphate, 10 mM NaF, 1 mM DTT, 1 mM PMSF). Lysates were centrifuged for 5 min at 10,000×g, and proteins (˜40 μg) were resolved by SDS-PAGE followed by semi-dry transfer to nitrocellulose membranes. Membranes were blocked in TBS-5% milk supplemented with 0.1% Tween-20. […] After washing in block solution, immunoreactive material was detected by enhanced chemiluminescence (SuperSignal West Dura Extended, Pierce, Inc., Rockville, Ill.).
A. XBP-luciferase reporter construct. […] After 24 hours, luciferase activity was analyzed in an automated plate reader. For each cell line, values are expressed as the percent inhibition of the median for Tm/Tg-treated wells, corrected for background. […] Values are expressed as the fold increases over uninduced levels. […] Cells were harvested, lysed, and analyzed by immunoblotting with antisera specific for HIF-1α (top), XBP-1s (middle) or actin (bottom). […] Total RNA was analyzed by Northern blotting using radiolabeled probes specific for P58^IPK or DER-1. […]

XBP-luciferase reporter = XBP-luciferase reporter assay under Tm or hypoxia, HT1080 cells; format: cell-based, human
Description: HT1080 cells stably expressing the XBP-luciferase construct were grown in 60 mm dishes to 60-70% confluency. Following hypoxia treatment, cells were washed twice with PBS, lysed in 400 μl 1× reporter lysis buffer (RLB) (Promega, Madison Wis.) for 30 min at 24° C. Lysates (100 μl) were mixed with an equal volume of luciferase substrate (Promega), and assayed using a luminometer. For 5×-UPRE-luciferase reporter assays, cells were co-transfected with the appropriate reporter plasmid and a control plasmid (pSV40-beta-gal) using Lipofectamine 2000 (Invitrogen, San Diego, Calif.). Twenty-four hours after transfection, fresh media was added, and cells were treated with Tm or shifted to hypoxia. After treatment, cells were lysed in 1×RLB and analyzed for luciferase activity as described above. Beta-galactosidase activity was determined using the beta-galactosidase enzyme assay system (Promega).
A. XBP-luciferase reporter construct. Firefly luciferase was inserted downstream of the IRE1α splice site in human XBP-1 to enable the conditional translation of luciferase under ER stress in an IRE1α-dependent manner. B. Selective inhibition of the XBP-luciferase reporter by irestatin 9389. HT1080 human fibrosarcoma cells stably expressing the XBP-luciferase reporter or CMV-luciferase were cultured in the presence of Tm (4 μg/ml) and Tg (0.4 μM) and irestatin 9389 at the indicated concentrations. After 24 hours, luciferase activity was analyzed in an automated plate reader. For each cell line, values are expressed as the percent inhibition of the median for Tm/Tg-treated wells, corrected for background. C. Structure of irestatin 9389. D. XBP-luciferase reporter assay. HT1080 cells stably expressing the XBP-luciferase reporter were exposed to Tm (4 μg/ml) for 24 hours or hypoxia (0.1% oxygen) for 24 or 48 hours, in the presence of DMSO or irestatin 9389 (1 μM) as indicated. Values are expressed as the fold increases over uninduced levels. E. 5×-UPRE reporter assay. HT1080 cells were co-transfected with 5×-UPRE luciferase and SV40-beta-gal reporter plasmids, followed by exposure to Tm or hypoxia as in D. For each condition, luciferase activity is normalized to beta-galactosidase expression levels as an internal control for transfection efficiency. F. Western immunoblot analysis of XBP-1s. HT1080 cells were left untreated (lane 2) or exposed to Tm (4 μg/ml) for 20 hours in the presence of DMSO vehicle (lane 1) or the indicated irestatins (2 μM; lanes 3-6). […] Cells were harvested, lysed, and analyzed by immunoblotting with antisera specific for HIF-1α (top), XBP-1s (middle) or actin (bottom). […] Total RNA was analyzed by Northern blotting using radiolabeled probes specific for P58^IPK or DER-1. […]

RNAse A = target: T1, RNAse A (Bos taurus, UniProt P61823); experiment: RNAse A activity assay; format: biochemical, bovine; settings: >100-fold molar excess of irestatin 9389
T1 construct: purchased Sigma

HT1080 tumor xenografts = experiment: Immunohistochemical analysis of tumor xenografts (pimonidazole, cleaved caspase-3); format: in vivo, mice; settings: three doses, 50 mg/kg
Description: Tumor-bearing mice were injected i.p. with hypoxyprobe (50 mg/kg) 1 hour prior to sacrifice. Mice were euthanised under anesthesia by cervical dislocation, and tumors were surgically resected, embedded in OCT compound (Sakura Tissue Tek), and frozen at −80° C. Tumors were sectioned at 8 μm, fixed in 4% paraformaldehyde, and blocked in PBS-4% BSA. Tissue sections were incubated overnight in block solution containing antisera specific for hypoxyprobe (1:250) and cleaved caspase-3 (1:400). Slides were washed three times with block solution and incubated for 2 hours at room temperature with anti-mouse Alexa 488 or anti-rabbit Alexa 594 (Invitrogen, San Diego, Calif.). Slides were washed five times in block solution, and coverslips mounted with Permount supplemented with DAPI.
Immunohistochemical analysis of tumor xenografts. […] D. Quantification of tumor immunohistochemistry. At least 8 randomly chosen fields (>300 cells/field) per tumor were scored for pimonidazole and cleaved caspase-3 staining. A minimum of 3 tumors (250-300 mm^3 at harvest) were analyzed per treatment group. […]
We further examined tumors from control and irestatin-treated mice for differences in cell survival. […] The increase in apoptosis was most pronounced in hypoxic tissue regions of tumors, as determined by co-immunoreactivity for pimonidazole adducts (FIG. 14C, bottom panel). […]

RPMI 8226 myeloma cells = experiment: Cell proliferation assay, RPMI 8226; format: cell-based, human; settings: dose-dependent

T1 sequence (P61823 27-150): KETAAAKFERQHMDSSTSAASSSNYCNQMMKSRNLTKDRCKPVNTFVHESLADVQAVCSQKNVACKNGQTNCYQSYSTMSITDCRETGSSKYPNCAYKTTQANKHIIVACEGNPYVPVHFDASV

In the case of `Cc1csc(NC(=O)CSc2nc3c(c(C(F)(F)F)c2C#N)CCC3)n1` [Compound 9389], the “levels of XBP-1s under hypoxia” value (XBP-1s; 2 μM, 24 hours of hypoxia) is reported as “decreased levels of XBP-1s”, the “accumulation of XBP-1s following treatment with Tm” value (XBP-1s; irestatins 2 μM, Tm (4 μg/ml) 20 hours) is reported as “blocked the accumulation of XBP-1s” and the “hypoxia-induced increase of XBP-luciferase activity” value (XBP-luciferase reporter; 1 μM, 48 hours of hypoxia (control 95-fold)) is reported as “robustly inhibited this response”. For the same molecule, the “activation of the XBP-luciferase reporter under hypoxia” value (XBP-luciferase reporter; 1 μM, hypoxia (<0.1% oxygen) for 24 or 48 hours) was “diminished activation”, the inhibition at 1 µM (XBP-luciferase reporter; Homo sapiens, HT-1080, irestatin 9389 1 μM, Tm 24 hours, read-out: inhibition of Tm-mediated activation of the XBP-luciferase reporter) was > 90% and the “degradation of the XBP-1 3′ intronic loop by RNAse A” value (RNAse A) was “failed to inhibit degradation”. For the same molecule, the “cleaved caspase-3 in tumors relative to vehicle” value (HT1080 tumor xenografts) was “significant increase in cleaved caspase-3”, the “apoptotic fraction of hypoxic cells in tumors” value (HT1080 tumor xenografts; cleaved caspase-3 in pimonidazole-positive cells) was ~45% and the “growth of RPMI 8226” value (RPMI 8226 myeloma cells) was “strongly inhibited the growth”.
